From patent US7786141B2 (Vertex Pharmaceuticals Incorporated, priority 2004, dated 2010) come the findings set out here.

Some results are limits rather than exact numbers.

The target in one assay is T1, M1 muscarinic receptor (Homo sapiens, UniProt P11229).
T1 construct: expressed in transfected cells; host or cells: CHO (M1-CHO)
T1 sequence (P11229 1-460): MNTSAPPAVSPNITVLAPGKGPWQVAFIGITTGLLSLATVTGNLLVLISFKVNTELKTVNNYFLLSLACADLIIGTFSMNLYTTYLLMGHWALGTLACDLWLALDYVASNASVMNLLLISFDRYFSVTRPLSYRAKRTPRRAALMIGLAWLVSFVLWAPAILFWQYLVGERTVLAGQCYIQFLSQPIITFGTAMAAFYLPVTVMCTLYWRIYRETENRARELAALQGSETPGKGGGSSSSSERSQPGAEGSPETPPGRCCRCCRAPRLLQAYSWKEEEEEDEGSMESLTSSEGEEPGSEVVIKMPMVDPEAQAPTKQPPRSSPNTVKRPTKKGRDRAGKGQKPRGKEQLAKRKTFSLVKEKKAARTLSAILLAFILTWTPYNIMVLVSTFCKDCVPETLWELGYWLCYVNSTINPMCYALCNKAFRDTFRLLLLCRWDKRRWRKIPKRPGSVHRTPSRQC
Kind of assay: Functional mobilization of intracellular calcium (FLIPR) in M1-CHO cells. Type of assay: cell-based. Conditions: Table 4; for Emax: 100% efficacy is the maximum response obtained with the Carbachol control; for M1 Activity: M1 receptor, calcium mobilization (FLIPR). The procedure, abridged: (§1)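 Measured via Fluo-3 fluorescence on a FLIPR, CHO cells with either muscarinic subtype received compound in 0.5% DMSO. Antagonism was assessed after 15 min pre-incubation followed by carbachol at each subtype's EC80; agonism from compound addition alone.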
Background: Calcium assays in cells follow changes in intracellular calcium, usually with a dye or a luminescent sensor.

The target of another assay is T2, M4 muscarinic receptor (Homo sapiens, UniProt P08173).
T2 construct: expressed in transfected cells; host or cells: CHO (M4-CHO)
T2 sequence (P08173 1-479): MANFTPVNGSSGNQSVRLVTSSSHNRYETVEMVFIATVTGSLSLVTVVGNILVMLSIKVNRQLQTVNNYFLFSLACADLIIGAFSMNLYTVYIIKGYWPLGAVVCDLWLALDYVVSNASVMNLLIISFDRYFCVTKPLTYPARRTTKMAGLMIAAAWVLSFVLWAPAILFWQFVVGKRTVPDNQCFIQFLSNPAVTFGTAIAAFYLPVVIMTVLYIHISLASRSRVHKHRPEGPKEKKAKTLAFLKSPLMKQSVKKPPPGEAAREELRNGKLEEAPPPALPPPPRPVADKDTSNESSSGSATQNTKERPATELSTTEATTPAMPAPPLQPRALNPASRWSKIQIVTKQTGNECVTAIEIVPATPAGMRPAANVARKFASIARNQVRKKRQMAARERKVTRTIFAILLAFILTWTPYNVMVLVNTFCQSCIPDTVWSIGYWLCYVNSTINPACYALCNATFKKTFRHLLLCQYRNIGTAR
Kind of assay: Functional mobilization of intracellular calcium (FLIPR) in M4-CHO cells. Type of assay: cell-based. Conditions: Table 4; for Emax: 100% efficacy is the maximum response obtained with the Carbachol control; for M4 Activity: M4 receptor, calcium mobilization (FLIPR). The procedure, abridged: as §1

`CC(CF)OC(=O)N1CCC(N2CCC3(CC2)CN(C(=O)N(C)C)c2ccc(F)cc23)CC1` (centres unmarked) [compound 987]: on M1 muscarinic receptor, the maximal effect (Emax) fell in the range of 25 to 100% and the “M1 Activity” value is “xxx (activity was measured to be less than 2.0 μM)”. For the same compound, at M4 muscarinic receptor, the Emax was in the range of 25 to 100% and the “M4 Activity” value was “xxx (activity was measured to be less than 2.0 μM)”.
With `CN(C)C(=O)N1CC2(CCN(C3CCN(C(=O)c4ccnnc4)CC3)CC2)c2cc(F)ccc21` [compound 988], on M1 muscarinic receptor, the Emax was 25 to 100% and the “M1 Activity” value is on record as “xxx (activity was measured to be less than 2.0 μM)”. At M4 muscarinic receptor, the Emax was in the range of 25 to 100% and the “M4 Activity” value was “xxx (activity was measured to be less than 2.0 μM)”.
On to `C#CCCOC(=O)N1CCC(N2CCC3(CC2)CN(C(C)=O)c2ccccc23)CC1` [compound 989], for which, at M1 muscarinic receptor, the Emax was 25 to 100% and the “M1 Activity” value is reported as “xxx (activity was measured to be less than 2.0 μM)”. On M4 muscarinic receptor, the Emax is < 25% and the “M4 Activity” value is on record as “x (activity was measured to be greater than 5.0 μM)”.
For `COc1ccc(N2CCC(N3CCC4(CC3)CN(C(=O)N(C)C)c3ccc(F)cc34)CC2)cc1` [compound 990], on M1 muscarinic receptor, the Emax was in the range of 25 to 100%; the “M1 Activity” value is “xx (activity was measured to be between 2.0 μM and 5.0 μM)”. For the same compound, at M4 muscarinic receptor, the Emax lay in the range of 25 to 100% and the “M4 Activity” value was “x (activity was measured to be greater than 5.0 μM)”.
In the case of `CCOC(=O)N1CCC(N2CCC3(CC2)CN(c2ccccc2F)c2ccc(F)cc23)CC1` [compound 991], on M1 muscarinic receptor, the Emax was in the range of 25 to 100% and the “M1 Activity” value was “xxx (activity was measured to be less than 2.0 μM)”. Also, at M4 muscarinic receptor, the Emax lay in the range of 25 to 100% and the “M4 Activity” value is recorded as “xxx (activity was measured to be less than 2.0 μM)”.
For `CCOC(=O)N1CCC(N2CCC3(CC2)CN(C(C)=O)c2c(-c4ccc(F)cc4)cccc23)CC1` [compound 992], at M1 muscarinic receptor, the Emax was in the range of 25 to 100% and the “M1 Activity” value is “x (activity was measured to be greater than 5.0 μM)”. Moreover, at M4 muscarinic receptor, the maximal response (Emax) lay within 25 to 100% and the “M4 Activity” value is “x (activity was measured to be greater than 5.0 μM)”.
As to `CC(=O)N[C@H]1CCC2(CCN(CC3CCCC3)CC2)c2ccccc21` [compound 993], at M1 muscarinic receptor, the Emax is 25 to 100% and the “M1 Activity” value is listed as “xxx (activity was measured to be less than 2.0 μM)”. At M4 muscarinic receptor, the Emax was in the range of 25 to 100% and the “M4 Activity” value is “xxx (activity was measured to be less than 2.0 μM)”.
Regarding `CCOC(=O)N1CCC(CN2CCC3(CC2)CN(C(C)=O)c2ccc(C(F)(F)F)cc23)CC1` [compound 994], on M1 muscarinic receptor, the Emax fell in the range of 25 to 100% and the “M1 Activity” value is listed as “xxx (activity was measured to be less than 2.0 μM)”. At M4 muscarinic receptor, the Emax is 25 to 100% and the “M4 Activity” value was “xxx (activity was measured to be less than 2.0 μM)”.
Take `CCOC(=O)N1CCC(N2CCC3(CC2)CN(C(C)=O)c2c(Br)cccc23)CC1` [compound 995]: on M1 muscarinic receptor, the maximal response (Emax) was 25 to 100% and the “M1 Activity” value was “x (activity was measured to be greater than 5.0 μM)”. Also, at M4 muscarinic receptor, the Emax lay within 25 to 100%; the “M4 Activity” value was “xx (activity was measured to be between 2.0 μM and 5.0 μM)”.
In the case of `CC(=O)N1CC2(CCN(C[C@@H]3CCN(C(=O)OC(C)C)C3)CC2)c2ccccc21` [compound 996], at M1 muscarinic receptor, the Emax was < 25% and the “M1 Activity” value is reported as “x (activity was measured to be greater than 5.0 μM)”. For the same compound, at M4 muscarinic receptor, the Emax is < 25% and the “M4 Activity” value is “x (activity was measured to be greater than 5.0 μM)”.
On to `CN(C)C(=O)NC1CCC2(CCN(CC3CC4C=CC3C4)CC2)c2ccccc21` (centres unmarked) [compound 998], for which, at M1 muscarinic receptor, the Emax was < 25% and the “M1 Activity” value is on record as “x (activity was measured to be greater than 5.0 μM)”. In addition, on M4 muscarinic receptor, the Emax lay within 25 to 100% and the “M4 Activity” value is “xxx (activity was measured to be less than 2.0 μM)”.
Regarding `CC(=O)NC1CCC2(CCN(CCC3CCN(C(=O)N(C)C)CC3)CC2)c2ccccc21` (centres unmarked) [compound 999], on M1 muscarinic receptor, the Emax was in the range of 25 to 100% and the “M1 Activity” value is given as “xxx (activity was measured to be less than 2.0 μM)”. For the same compound, at M4 muscarinic receptor, the Emax is < 25% and the “M4 Activity” value is given as “x (activity was measured to be greater than 5.0 μM)”.
The like results for `CCC(C)C(=O)N1CCC(N2CCC3(CC2)CN(C(C)=O)c2ccccc23)CC1` (centres unmarked) [compound 1000] were, in that order, 25 to 100%, “x (activity was measured to be greater than 5.0 μM)”, 25 to 100% and “x (activity was measured to be greater than 5.0 μM)”.
The like results for `COc1cc2c(cc1OC)C1(CCN([C@H]3CC4CC[C@@H]3C4)CC1)C[C@@H]2NC(C)=O` [compound 1002] were, in that order, < 25%, “x (activity was measured to be greater than 5.0 μM)”, < 25% and “x (activity was measured to be greater than 5.0 μM)”.
The like results for `CCOC(=O)N1CCC(CN2CCCC3(CC2)CN(C(C)=O)c2ccc(F)cc23)CC1` (centres unmarked) [compound 1003] were, in that order, 25 to 100%, “xxx (activity was measured to be less than 2.0 μM)”, 25 to 100% and “xxx (activity was measured to be less than 2.0 μM)”.
`CCOC(=O)N1CCC(N2CCC3(CC2)CN(C(=O)[C@@H](O)CC)c2ccc(F)cc23)CC1` [compound 1004]: on M1 muscarinic receptor, the Emax fell in the range of 25 to 100% and the “M1 Activity” value is “xxx (activity was measured to be less than 2.0 μM)”. In addition, on M4 muscarinic receptor, the Emax was 25 to 100% and the “M4 Activity” value is given as “xxx (activity was measured to be less than 2.0 μM)”.
With `CN(C)C(=O)N[C@H]1CC2(CCN([C@@H]3CC4CC[C@@H]3C4)CC2)c2ccccc21` [compound 1005], at M1 muscarinic receptor, the Emax was < 25% and the “M1 Activity” value is given as “x (activity was measured to be greater than 5.0 μM)”. In addition, on M4 muscarinic receptor, the Emax lay within 25 to 100% and the “M4 Activity” value is on record as “xxx (activity was measured to be less than 2.0 μM)”.
The like results for `CN(C)C(=O)N1CC2(CCN(C3CCN(C(=O)[C@@H]4CCCO4)CC3)CC2)c2cc(F)ccc21` [compound 1006] were, in that order, 25 to 100%, “x (activity was measured to be greater than 5.0 μM)”, < 25% and “x (activity was measured to be greater than 5.0 μM)”.
Regarding `CC(=O)CN1CC2(CCN(C3CCCCCC3)CC2)c2cc(F)ccc21` [compound 1009], at M1 muscarinic receptor, the Emax lay within 25 to 100% and the “M1 Activity” value is “xxx (activity was measured to be less than 2.0 μM)”. In addition, at M4 muscarinic receptor, the Emax was in the range of 25 to 100% and the “M4 Activity” value was “xxx (activity was measured to be less than 2.0 μM)”.
As for `CN(C)C(=O)NC1CCC2(CCN(CCC3CC4CCC3C4)CC2)c2ccccc21` (centres unmarked) [compound 1010], on M1 muscarinic receptor, the Emax is < 25% and the “M1 Activity” value is recorded as “x (activity was measured to be greater than 5.0 μM)”. Besides, at M4 muscarinic receptor, the Emax was < 25% and the “M4 Activity” value is “x (activity was measured to be greater than 5.0 μM)”.
For the compound `COCCOC(=O)N1CCC(N2CCC3(CC2)CN(C(C)=O)c2ccc(F)cc23)C1` (centres unmarked) [compound 1012], at M1 muscarinic receptor, the Emax is < 25% and the “M1 Activity” value is listed as “x (activity was measured to be greater than 5.0 μM)”. Further, on M4 muscarinic receptor, the Emax is < 25% and the “M4 Activity” value is given as “x (activity was measured to be greater than 5.0 μM)”.
Regarding `C#CCCOC(=O)N1CC[C@@H](CN2CCC3(CC2)CN(C(C)=O)c2ccccc23)C1` [compound 1013], at M1 muscarinic receptor, the Emax was < 25% and the “M1 Activity” value is “x (activity was measured to be greater than 5.0 μM)”. Moreover, on M4 muscarinic receptor, the Emax is < 25% and the “M4 Activity” value is on record as “x (activity was measured to be greater than 5.0 μM)”.
`CCOC(=O)N1C2CCC1CC(N1CCC3(CC[C@H](N4CCCC4=O)c4ccccc43)CC1)C2` (some centres unmarked) [compound 1014]: at M1 muscarinic receptor, the Emax is 25 to 100% and the “M1 Activity” value is listed as “xxx (activity was measured to be less than 2.0 μM)”. For the same compound, on M4 muscarinic receptor, the Emax lay within 25 to 100% and the “M4 Activity” value was “xxx (activity was measured to be less than 2.0 μM)”.

As a reminder, the Emax is the greatest response seen or fitted, relative to the assay's reference.
